# Experimental data from patent US12686832B2, “Ashless ionic liquid” (PETROLIAM NASIONAL BERHAD (PETRONAS), priority 2022, dated 2026).
# Tests used:
# [1] = Miscibility study in ETRO 4+; assay type: physicochemical; conditions: 1 wt. % in ETRO 4+, mixed at 60° C. for 1 h, left 24 h before observation
# Procedure: Synthesised ionic liquids (1 wt. %) were mixed with ETRO 4+ solution at 60° C. for 1 h, and left to sit for 24 h before observation.
# [2] = Thermo-gravimetric analysis under nitrogen (ashless nature); assay type: physicochemical
# Description: The ashless nature of the formed ionic liquid was confirmed by thermo-gravimetric analysis under nitrogen (0.4788 wt. % residue).
# The ashless nature of the formed ionic liquid was confirmed by thermo-gravimetric analysis under nitrogen (0.47271 wt. % residue).
# [3] = High Frequency Reciprocating Rig (HFRR) tribology test; conditions: for Friction coefficient behaviour over contact time / friction reduction compared to the baseline fluid / wear scar diameter reduction compared to the baseline fluid: 1 wt % in PETRONAS LB 25 polyol ester; for Friction coefficient behaviour over contact time: vs baseline fluid
# Procedure: (§1) High Frequency Reciprocating Rig (HFRR): tribology test rubbing of ball to disc metal specimens, under pure sliding contact (boundary lubrication regime), load at 400 g, frequency at 20 Hz, temperature at 120° C. for 60 mins. Only visually soluble solutions were evaluated, therefore, only Formulation 2 and Formulation 3 were tested. Reported values were the average of minimum 2 repeat runs.
# as §1, with “was” for “and Formulation 3 were”, “replicate” for “repeat”
# High Frequency Reciprocating Rig (HFRR): tribology test rubbing of ball to disc metal specimens, under pure sliding contact (boundary lubrication regime), load at 400 g, frequency at 20 Hz, temperature at 120° C. for 60 mins. Reported values were the average of minimum 2 replicate runs.
# [4] = Experimental solubility at 1 wt % in lubricant base oils; assay type: physicochemical
# Procedure: ILN18-5B-DC12 was mixed in mineral base oil Group III+ (ETRO 4+) and PETRONAS LB 25 polyol ester (and their mixtures) at 1 wt. % concentration to assess solubility and tribology evaluation. Samples were prepared by mixing the solutions at 60° C. for 1 h.
# Samples were prepared by mixing the solutions at 60° C. for 1 h.
# ILN18-MECA-1 was mixed in mineral base oil Group III+(ETRO 4+) and PETRONAS LB 25 polyol ester at 1 wt % concentration respectively to assess solubility and tribology evaluation. Samples were prepared by mixing the solutions at 60° C. for 1 h.
# [5] = HFRR 400 g, 20 Hz, 120° C., 60 mins
# [6] = 1 wt % in ETRO 4+ (89%) and LB 25 (10%), HFRR 400 g, 20 Hz, 120° C., 60 mins
Appearance (miscibility) [1],Compound,residue in thermo-gravimetric analysis [2],Friction coefficient behaviour over contact time [3],"friction reduction compared to the baseline fluid [3, 5]","wear scar diameter reduction compared to the baseline fluid [3, 5]",further results
Clear solution,CCCCCCCCC(=O)OC(CCCCCC)CCCCCCCCCCC(=O)[O-].CCCCCCCC[N+](C)(CCCCCCCC)CCCCCCCC (stereo not shown) [ILN18-MECA-4],–,–,–,–,–
Insoluble (2 separate phases),CC(C)(COC(=O)CCCCCCCCC(=O)[O-])COC(=O)CCCCCCCCC(=O)[O-].CCCCCCCC[N+](C)(CCCCCCCC)CCCCCCCC.CCCCCCCC[N+](C)(CCCCCCCC)CCCCCCCC [ILN18-5B-DC10],–,–,–,–,–
Insoluble (2 separate phases),"CCCCCCCC[N+](C)(CCCCCCCC)CCCCCCCC.CCCCCCCC[N+](C)(CCCCCCCC)CCCCCCCC.O=C([O-])CCCCCCCCCCC(=O)[O-] [ILN18-DC12, reference compound]",–,–,–,–,–
–,tris-(trioctyl methylammonium) trisebacate [ILN18-6BT-DC10],0.4727 wt. %,significant friction reduction,57%,58%,–
–,CC(C)(COC(=O)CCCCCCCCCCC(=O)O)COC(=O)CCCCCCCCCCC(=O)O [ILN18-5B-DC12],0.4788 wt. %,significant friction reduction,67%,59%,"friction reduction compared to baseline [3, 6]: 55%; wear scar diameter reduction compared to baseline [3, 6]: 57%; Experimental solubility ([4]; Formulation 1: 1 wt % in Group III Mineral Oil (ETRO 4+), mixed at 60° C. for 1 h): Insoluble; Experimental solubility ([4]; Formulation 2: 1 wt % in PETRONAS polyol ester LB 25, mixed at 60° C. for 1 h): Soluble, clear solution; Experimental solubility ([4]; Formulation 3: 1 wt % in ETRO 4+ (89%) and LB 25 (10%), mixed at 60° C. for 1 h): Soluble, clear solution"
